Measurements taken from patent US20130040882A1, “USE OF FIBROBLAST GROWTH FACTOR FRAGMENTS” (NOVARTIS AG, priority 2003, published 2013).
“And” between values parts separate entries of the source, which are not always exact repeats. Identical values can stand only once.

Assays:
[1] = Salmon calcitonin/PTS893 monkey study: in vivo examinations (mortality, food consumption, clinical observations, body weight); set-up: species or system cynomolgus monkeys (Macaca fascicularis)
Method: Solvent was used as vehicle for the control group.
The animals used in this analysis were cynomolgus monkeys (Macaca fascicularis), supplied by Centre de Recherches Primatologiques, Port Louis, Mauritius. Two animals were used per group and sex. […] Animals were examined daily for mortality, food consumption and clinical observations. Body weight was recorded once per week.
In vivo examinations. No significant histopathological changes were observed.

[2] = Salmon calcitonin/PTS893 monkey study: haematology; format: in vivo, cynomolgus monkeys (Macaca fascicularis);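 note: haematology parameters were measured in blood collected from a peripheral vein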
Method: Animals were fasted overnight before blood collection but had free access to water. Blood samples were taken from a peripheral vein. Standard haematology and clinical chemistry analysis were performed once during pretest and at the end of the treatment period. Blood samples were collected from each animal at the same intervals as described for the clinical chemistry investigations. The serum samples were deep-frozen (approximately −80° C.) until analyses for hormone determination.

[3] = Salmon calcitonin/PTS893 monkey study: histopathology incl. osteonectin, osteopontin and osteocalcin staining of bone; format: in vivo, cynomolgus monkeys (Macaca fascicularis); conditions: females
Method: Animals were killed by deep anaesthesia induced by intravenous injection of Pentothal®, followed by exsanguinations. All relevant tissues were sampled for histopathology and gene expression profiling. The following tissue samples were processed for analysis: liver, kidney, pituitary, muscle, bone, duodenum, spleen and trachea. Samples for histopathology were fixed in phosphate-buffered 10% formalin. Bone demineralization was performed with 10% formic acid. Tissue samples were embedded in Paraplast® and sectioned at 4 microns, for staining with haematoxylin and eosin. […] All selected tissues for gene expression profiling were examined histopathologically.
Bone sections were stained for osteonectin, osteopontin and osteocalcin and were evaluated histopathologically. Histomorphometry of the bone tissue was performed regarding parameters for bone resorption and synthesis (osteoid formation).

[4] = Salmon calcitonin/PTS893 monkey study: urinalysis; conditions: urine
[5] = female monkeys, day 13 of dosing
[6] = female monkeys, day −8 relative to start of dosing
[7] = male monkeys, day −6 relative to start of dosing

CC(C)C[C@H](NC(=O)[C@H](CCCCN)NC(=O)CNC(=O)[C@H](CC(C)C)NC(=O)[C@@H](NC(=O)[C@@H]1CSSC[C@H](N)C(=O)N[C@@H](CO)C(=O)N[C@@H](CC(N)=O)C(=O)N[C@@H](CC(C)C)C(=O)N[C@@H](CO)C(=O)N[C@@H]([C@@H](C)O)C(=O)N1)C(C)C)C(=O)N[C@@H](CO)C(=O)N[C@@H](CCC(N)=O)C(=O)N[C@@H](CCC(=O)O)C(=O)N[C@@H](CC(C)C)C(=O)N[C@@H](Cc1c[nH]cn1)C(=O)N[C@@H](CCCCN)C(=O)N[C@@H](CC(C)C)C(=O)N[C@@H](CCC(N)=O)C(=O)N[C@H](C(=O)N[C@@H](Cc1ccc(O)cc1)C(=O)N1CCC[C@H]1C(=O)N[C@@H](CCCNC(=N)N)C(=O)N[C@H](C(=O)N[C@@H](CC(N)=O)C(=O)N[C@H](C(=O)NCC(=O)N[C@@H](CO)C(=O)NCC(=O)N[C@H](C(=O)N1CCC[C@H]1C(N)=O)[C@@H](C)O)[C@@H](C)O)[C@@H](C)O)[C@@H](C)O [salmon calcitonin]
Food consumption ([1]; 50 μg/animal/day sc, two weeks): decrease
Signs of toxicity ([1]; 50 μg/animal/day sc, two weeks): no signs of toxicity
Food Consumption, Avg., Both animals ([1]; males, average of both animals of the group): 72.9
Food Consumption, Avg. ([1]; males, average per individual animal): 70.8 and 75.0
Food Consumption, Day 1 ([1]; males, day 1 of SC dosing, individual animals): 75 and 50
Food Consumption, Day 2 ([1]; males, day 2 of SC dosing, individual animals): 25
Food Consumption, Day 3 ([1]; males, day 3 of SC dosing, individual animals): 50 and 100
Food Consumption, Day 4 ([1]; males, day 4 of SC dosing, individual animals): 100 and 75
Food Consumption, Day 5 ([1]; males, day 5 of SC dosing, individual animals): 100
Food Consumption, Day 6 ([1]; males, day 6 of SC dosing, individual animals): 75
Food Consumption, Day 7 ([1]; males, day 7 of SC dosing, individual animals): 100 and 75
Food Consumption, Day 8 ([1]; males, day 8 of SC dosing, individual animals): 100 and 75
Food Consumption, Day 9 ([1]; males, day 9 of SC dosing, individual animals): 100
Food Consumption, Day 10 ([1]; males, day 10 of SC dosing, individual animals): 100
Food Consumption, Day 11 ([1]; males, day 11 of SC dosing, individual animals): 75 and 100
Food Consumption, Day 12 ([1]; males, day 12 of SC dosing, individual animals): 75
Food Consumption, Day 13 ([1]; males, day 13 of SC dosing, individual animals): 25
Food Consumption, Day 14 ([1]; males, day 14 of SC dosing, individual animals): 75
Food Consumption, Day −1 ([1]; males, day −1 (before dosing), individual animals): 75
Food Consumption, Day −2 ([1]; males, day −2 (before dosing), individual animals): 100
Food Consumption, Day −3 ([1]; males, day −3 (before dosing), individual animals): 75
Food Consumption, Day −4 ([1]; males, day −4 (before dosing), individual animals): 50 and 75
Food Consumption, Day −5 ([1]; males, day −5 (before dosing), individual animals): 75
Food Consumption, Day −6 ([1]; males, day −6 (before dosing), individual animals): 50
Haematology L ([2]; females, d7): 4.61 pg/ml and 6.21 pg/ml
Haematology M ([2]; females, d7): 0.63 nmol/l and 0.82 nmol/l
Haematology MCH ([2]; females, d7): 18.6 ng/ml and 19.4 ng/ml
Haematology MCHC ([2]; females, d7): 29.0 pg/ml and 28.7 pg/ml
Haematology PCV ([2]; females, d7): 0.40 mU/l and 0.44 mU/l
Haematology PLAT ([2]; females, d7): 594 nmol/l and 356 nmol/l
Haematology RBC ([2]; females, d7): 6.2 nmol/l and 6.6 nmol/l
Haematology M ([2]; females, d13): 0.69 nmol/l and 0.39 nmol/l
Haematology MCH ([2]; females, d13): 19.5 ng/ml
Haematology MCHC ([2]; females, d13): 30.3 pg/ml and 29.9 pg/ml
Haematology N ([2]; females, d13): 5.41 nmol/l and 6.16 nmol/l
Haematology PCV ([2]; females, d13): 0.33 mU/l and 0.37 mU/l
Haematology PLAT ([2]; females, d13): 451 nmol/l and 229 nmol/l
Haematology RBC ([2]; females, d13): 5.2 nmol/l and 5.7 nmol/l
Haematology E ([2]; females, d−8 (before dosing)): 0.03 mUI/l
Haematology L ([2]; females, d−8 (before dosing)): 3.26 pg/ml and 4.79 pg/ml
Haematology M ([2]; females, d−8 (before dosing)): 0.25 nmol/l and 0.30 nmol/l
Haematology MCH ([2]; females, d−8 (before dosing)): 19.1 ng/ml and 19.8 ng/ml
Haematology MCHC ([2]; females, d−8 (before dosing)): 31.2 pg/ml and 30.6 pg/ml
Haematology N ([2]; females, d−8 (before dosing)): 3.45 nmol/l and 3.13 nmol/l
Haematology PCV ([2]; females, d−8 (before dosing)): 0.40 mU/l and 0.45 mU/l
Haematology PLAT ([2]; females, d−8 (before dosing)): 549 nmol/l and 304 nmol/l
Haematology RBC ([2]; females, d−8 (before dosing)): 6.5 nmol/l and 7.0 nmol/l
Haematology B ([2]; males, d7): 0.04 G/l
Haematology E ([2]; males, d7): 0.10 G/l and 0.09 G/l
Haematology HB ([2]; males, d7): 11.7 g/dl and 11.5 g/dl
Haematology L ([2]; males, d7): 6.79 G/l and 5.57 G/l
Haematology M ([2]; males, d7): 0.73 G/l and 0.45 G/l
Haematology MCH ([2]; males, d7): 19.9 pg and 19.2 pg
Haematology MCHC ([2]; males, d7): 30.3 g/dl and 31.3 g/dl
Haematology MCV ([2]; males, d7): 66 fl and 62 fl
Haematology N ([2]; males, d7): 4.11 G/l and 3.31 G/l
Haematology PCV ([2]; males, d7): 0.39 l/l and 0.37 l/l
Haematology PLAT ([2]; males, d7): 396 G/l and 330 G/l
Haematology RBC ([2]; males, d7): 5.9 T/l and 6.0 T/l
Haematology WBC ([2]; males, d7): 11.8 G/l and 9.5 G/l
Haematology B ([2]; males, d13): 0.03 G/l
Haematology HB ([2]; males, d13): 11.2 g/dl and 10.3 g/dl
Haematology L ([2]; males, d13): 5.38 G/l and 4.92 G/l
Haematology M ([2]; males, d13): 0.57 G/l and 0.76 G/l
Haematology MCH ([2]; males, d13): 20.2 pg and 19.2 pg
Haematology MCHC ([2]; males, d13): 29.0 g/dl and 28.7 g/dl
Haematology MCV ([2]; males, d13): 70 fl and 67 fl
Haematology N ([2]; males, d13): 1.90 G/l and 3.04 G/l
Haematology PCV ([2]; males, d13): 0.39 l/l and 0.36 l/l
Haematology PLAT ([2]; males, d13): 302 G/l and 389 G/l
Haematology RBC ([2]; males, d13): 5.6 T/l and 5.4 T/l
Haematology WBC ([2]; males, d13): 8.0 G/l and 8.8 G/l
Haematology HB ([2]; males, d−6 (before dosing)): 12.6 g/dl and 13.6 g/dl
Haematology L ([2]; males, d−6 (before dosing)): 4.00 G/l and 6.55 G/l
Haematology MCH ([2]; males, d−6 (before dosing)): 20.2 pg and 19.7 pg
Haematology MCHC ([2]; males, d−6 (before dosing)): 31.4 g/dl and 32.0 g/dl
Haematology MCV ([2]; males, d−6 (before dosing)): 64 fl and 62 fl
Haematology N ([2]; males, d−6 (before dosing)): 3.36 G/l and 3.93 G/l
Haematology PCV ([2]; males, d−6 (before dosing)): 0.40 l/l and 0.43 l/l
Haematology PLAT ([2]; males, d−6 (before dosing)): 351 G/l and 247 G/l
Haematology RBC ([2]; males, d−6 (before dosing)): 6.3 T/l and 6.9 T/l
Haematology WBC ([2]; males, d−6 (before dosing)): 7.7 G/l and 11.5 G/l
Inflammatory and regenerative changes in the kidneys [3]: slightly higher incidence
CREAT [4, 5]: 4800 µmol/L and 4200 µmol/L
Ca2+ [4, 5]: 17.55 mmol/L and 12.70 mmol/L
Cl− [4, 5]: 63 mmol/L and 65 mmol/L
I.PHOS [4, 5]: 5.1 mmol/L and 5.8 mmol/L
K+ [4, 5]: 53 mmol/L and 57 mmol/L
Mg2+ [4, 5]: 5.40 mmol/L and 4.85 mmol/L
NAG [4, 5]: 2.8 IU/l and 2.7 IU/l
Na+ [4, 5]: 40 mmol/L and 32 mmol/L
VOLUME [4, 5]: 67 mL and 49 mL
CREAT ([4]; female monkeys, day −7 relative to start of dosing): 6920 µmol/L and 13380 µmol/L
CREAT [4, 6]: 10780 µmol/L and 11260 µmol/L
Ca2+ [4, 6]: 3.00 mmol/L and 3.50 mmol/L
K+ [4, 6]: 104 mmol/L and 172 mmol/L
Mg2+ [4, 6]: 3.35 mmol/L and 3.80 mmol/L
Na+ [4, 6]: 98 mmol/L and 156 mmol/L
CREAT ([4]; male monkeys, day 13 of dosing): 4620 µmol/L and 4400 µmol/L
Ca2+ ([4]; male monkeys, day 13 of dosing): 18.25 mmol/L and 23.40 mmol/L
Cl− ([4]; male monkeys, day 13 of dosing): 55 mmol/L and 68 mmol/L
I.PHOS ([4]; male monkeys, day 13 of dosing): 2.50 mmol/L and 3.00 mmol/L
K+ ([4]; male monkeys, day 13 of dosing): 78 mmol/L and 76 mmol/L
Mg2+ ([4]; male monkeys, day 13 of dosing): 7.05 mmol/L and 9.80 mmol/L
Na+ ([4]; male monkeys, day 13 of dosing): 14 mmol/L and 15 mmol/L
VOLUME ([4]; male monkeys, day 13 of dosing): 68 mL and 54 mL
I.PHOS [4, 7]: 4.35 mmol/L and 5.33 mmol/L
LDH [4, 7]: 9.0 IU/L and 13.0 IU/L
NAG [4, 7]: 2.7 IU/l and 4.2 IU/l
VOLUME [4, 7]: 62 mL and 37 mL
